Results published in patent publication US9522124B2, “Methods for treating Alzheimer's disease” (Wisconsin Alumni Research Foundation, priority 2011, dated 2016).

Experiments:
[1] = system: ATase1 and ATase2; test: Western blot of ATase1 and ATase2 levels in CHO cells over-expressing transgenic ATase1 or ATase2; format: cell-based, hamster; conditions: 10 μM, 48 hours
Protocol: FIG. 4. Compound 9 causes degradation of the ATases. (A) H4 cells were treated with the indicated compounds (10 μM) for 48 hours prior to Western blot assessment of BACE1 and ATase1/ATase2 levels in total cell lysates. (B, D and E) Quantification of changes are expressed as percent of control (no treatment) and are the average (n=3)±S.D.*, P<0.05; **, P<0.005; ^#, P<0.0005. (C) ELISA determination of secreted Aβ in the conditioned media of the experiment described in (A). Results are expressed as percent of control (no treatment) and are the average (n=3)±S.D.*, P<0.05; **, P<0.005. (F) CHO cells over-expressing either ATase1 or ATase2 were treated with compound 9 (10 μM) for 48 hours prior to Western blot assessment of ATase1 and ATase2 levels in total cell lysates.
Western blotting was performed on a 4-12% Bis-Tris SDS-PAGE system (NuPAGE; Invitrogen, Carlsbad, Calif., USA) as described previously (Costantini et al., 2006; Jonas et al., 2008; Jonas et al., 2010; Ko and Puglielli, 2007; Ko and Puglielli, 2009; Pehar et al., 2010). […]

[2] = system: BACE1; test: Western blot assessment of BACE1 levels in H4 cell lysates; format: cell-based, human; conditions: H4 cells, 48 hours
Protocol: (§1) Western blotting was performed on a 4-12% Bis-Tris SDS-PAGE system (NuPAGE; Invitrogen, Carlsbad, Calif., USA) as described previously (Costantini et al., 2006; Jonas et al., 2008; Jonas et al., 2010; Ko and Puglielli, 2007; Ko and Puglielli, 2009; Pehar et al., 2010). The following antibodies were used in this study: anti-acetylated lysine (monoclonal; cat. no. ab409; Abcam, Cambridge, Mass., USA); anti-BACE1 (polyclonal; cat. no. ab2077; Abcam); anti-Myc (monoclonal; cat. no. sc-40; santa cruz, Santa Cruz, Calif., USA); anti-ATases/NAT8 (polyclonal; cat. no. AP4957c; Abgent, San Diego, Calif., USA); anti-actin (monoclonal; cat. no. A1978; Sigma, St Louis, Mo., USA); anti-C99 (monoclonal; cat. no. M066-3; MBL, Woburn, Mass., USA); anti-acetylated H3 (polyclonal; cat. no. 06-599, Millipore, Billerica, Mass.); anti-acetylated H4 (polyclonal; cat. no. 06-866, Millipore, Billerica, Mass.); anti-αPCNA (polyclonal; cat. no. AP2835b, Abgent, San Diego, Calif., USA).
Samples were imaged with classical chemiluminescence and with the LiCor Odyssey Infrared Imaging System (LI-COR Biosciences, Lincoln, Nebr., USA). For chemiluminescent detection, HRP-conjugated anti-mouse or anti-rabbit secondary antibodies were used at 1:6000 dilution in 3% BSA/TBST (GE Healthcare). Detection was performed with either Lumiglo (KPL) or ECL Plus (GE Healthcare). For infrared imaging, goat anti-rabbit Alexa Fluor 680-conjugated secondary antibodies were used.
To assess their biological effects, we treated human neuroglioma (H4) cells with 10 μM of both compounds. […] This might reflect different kinetics of inhibition as well as different IC50s (see FIG. 2). Alternatively, it might also be explained by different cell-permeability properties. In fact, the cLog P for compound 9 and 19 is 5.03 and 3.19, respectively. The cLog P (or partition coefficient) is an indication of partition properties of a compound between hydrophobic and hydrophilic compartments. Higher values indicate preferential distribution in hydrophobic environments and, as such, increased permeability across biological membranes.

[3] = system: cytosolic and nuclear proteins, histone proteins H3 and H4; test: Lysine acetylation profile of cytosolic and nuclear proteins in H4 cells; format: cell-based, human; conditions: 48 hours
Protocol: FIG. 8. […] (A and B) H4 cells were treated with either compound 9 or 19 for 48 hours prior to Western blot assessment of the acetylation profile of cytosolic (A) and nuclear (B) proteins. (C) The nuclear fraction used in (B) was also used to assess the lysine acetylation profile of the histone proteins H3 and H4.
as §1
Cytosolic and nuclear extracts were prepared as described before (Ko and Puglielli, 2007). For cytosolic extracts, cells were homogenized in homogenization buffer containing 25 mM Tris-HCl, pH 7.4, 0.5 mM EDTA, 0.5 mM EGTA, and a protease inhibitor mixture. The homogenates were centrifuged at 14,000×g for 15 min, and supernatants were collected as cytosolic proteins.
For nuclear extracts cells were scraped into ice-cold phosphate-buffered saline and collected by centrifugation. The cell pellets were suspended in 3 volumes of lysis buffer (20 mM Hepes, pH 7.9, 10 mM KCl, 1 mM EDTA, pH 8.0, 0.2% Nonidet P-40, 10% glycerol, and a protease inhibitor mixture) followed by incubation on ice for 10 min. Cell suspensions were gently pipetted up and down; the lysates were then centrifuged at 14,000×g for 5 min at 4° C. to obtain nuclear pellets. Nuclear pellets were washed twice with cell lysis buffer (lacking Nonidet P-40 and protease inhibitor mixture) and then resuspended in 2 volumes of nuclear extract buffer (20 mM Hepes, pH 7.9, 10 mM KCl, 1 mM EDTA, pH 8.0, 420 mM NaCl, 20% glycerol, and a protease inhibitor mixture). The nuclei were extracted by incubation at 4° C. for 30 min with gentle agitation followed by centrifugation at 14,000×g at 4° C. for 5 min; the resultant supernatant fraction was used as a nuclear extract.

[4] = system: C99; test: Western blot assessment of C99 levels in H4 cell lysates; format: cell-based, human; conditions: H4 cells, 48 hours
Protocol: FIG. 7. Compound 9 and 19 decrease levels and activity of BACE1. H4 cells were treated with either compound 9 or 19 for 48 hours prior to Western blot assessment of BACE1 and C99 levels in cell lysates. C99 is the immediate product of BACE1-mediated cleavage of APP.
as §1

O=c1c(Cl)c2oc3ccccc3nc-2c2ccccc12 [Compound 9]
levels of transgenic ATase1 and ATase2 [1]: significantly decreases | levels of BACE1 ([2]; 10 μM): significant reduction | levels of BACE1 with increasing concentrations ([2]; increasing concentrations): dose-dependent decrease | acetylation profile of cytosolic and nuclear proteins [3]: Neither compound 9 nor compound 19 produced significant changes | acetylation profile of the histone protein H3 and H4 ([3]; nuclear fraction): slight reduction | cellular levels of C99 [4]: decreased cellular levels of C99
